“And” between values parts separate entries of the source, which are not always exact repeats. Equal entries are not always repeated. Toxic doses and inconclusive results are not listed. How the source made its calls: active means survival T/C of 150% or more; inactive means T/C below 125% in these data.
System: CD2F1 mice, L1210 leukemia ip, survival T/C
Experiment: NCI In Vivo Anticancer Drug Screen. Data for tumor model L1210 Leukemia (intraperitoneal) in CD2F1 (CDF1) mice
Conditions: higher = longer survival
In short: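 Implant tumor; dose compound or vehicle; measure endpoint in both groups; report treated divided by control.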

[1] = endpoint: mean survival time, dose: 100.0 mg/kg/injection, schedule: Q01DX009 (ip), vehicle: saline with Tween-80
[2] = endpoint: mean survival time, dose: 100.0 mg/kg/injection, schedule: Q04DX003 (ip), vehicle: saline
[3] = endpoint: mean survival time, dose: 200.0 mg/kg/injection, schedule: Q01DX009 (ip), vehicle: saline with Tween-80
[4] = endpoint: mean survival time, dose: 200.0 mg/kg/injection, schedule: Q04DX003 (ip), vehicle: saline
[5] = endpoint: mean survival time, dose: 400.0 mg/kg/injection, schedule: Q01DX009 (ip), vehicle: saline with Tween-80
[6] = endpoint: mean survival time, dose: 100.0 mg/kg/injection, schedule: Q04DX003 (ip), vehicle: saline with Tween-80
[7] = endpoint: mean survival time, dose: 200.0 mg/kg/injection, schedule: Q04DX003 (ip), vehicle: saline with Tween-80
[8] = endpoint: mean survival time, dose: 400.0 mg/kg/injection, schedule: Q04DX003 (ip), vehicle: saline with Tween-80
[9] = endpoint: mean survival time, dose: 100.0 mg/kg/injection, schedule: Q04DX002 (ip), vehicle: saline with Tween-80
[10] = endpoint: mean survival time, dose: 200.0 mg/kg/injection, schedule: Q04DX002 (ip), vehicle: saline with Tween-80
[11] = endpoint: mean survival time, dose: 100.0 mg/kg/injection, schedule: Q01DX009 (ip), vehicle: saline
[12] = endpoint: mean survival time, dose: 50.0 mg/kg/injection, schedule: Q01DX009 (ip), vehicle: Klucel (hydroxypropylcellulose) (HPC)
[13] = endpoint: mean survival time, dose: 100.0 mg/kg/injection, schedule: Q01DX001 (ip), vehicle: saline with Tween-80
[14] = endpoint: mean survival time, dose: 200.0 mg/kg/injection, schedule: Q01DX001 (ip), vehicle: saline with Tween-80

Measured: T/C

NC(=O)c1ncn(C2OC(CO)C(O)C2O)n1 (stereo unspecified)
inactive: [1] 124 % of control | [2] 100 % of control | [3] 110 % of control | [4] 115 % of control | [5] 93 % of control | endpoint: mean survival time, dose: 400.0 mg/kg/injection, schedule: Q04DX003 (ip), vehicle: saline 110 % of control

CCC(C)NC(=O)C1C2CCC(C2)C1C(=O)NC(C)CC (stereo unspecified)
inactive: [6] 98 % of control | [7] 98 % of control | [8] 102 % of control

N#CSCCSC#N
inactive: endpoint: mean survival time, dose: 2.5 mg/kg/injection, schedule: Q04DX003 (ip), vehicle: Klucel (hydroxypropylcellulose) (HPC) 102 % of control | endpoint: mean survival time, dose: 5.0 mg/kg/injection, schedule: Q04DX003 (ip), vehicle: Klucel (hydroxypropylcellulose) (HPC) 120 % of control | endpoint: mean survival time, dose: 10.0 mg/kg/injection, schedule: Q04DX003 (ip), vehicle: Klucel (hydroxypropylcellulose) (HPC) 105 % of control

N#CC(C#N)=C/C=C/c1cccc([N+](=O)[O-])c1
inactive: endpoint: mean survival time, dose: 3.12 mg/kg/injection, schedule: Q01DX009 (ip), vehicle: Klucel (hydroxypropylcellulose) (HPC) 101 % of control | endpoint: mean survival time, dose: 6.25 mg/kg/injection, schedule: Q01DX009 (ip), vehicle: Klucel (hydroxypropylcellulose) (HPC) 109 % of control | endpoint: mean survival time, dose: 12.5 mg/kg/injection, schedule: Q01DX009 (ip), vehicle: Klucel (hydroxypropylcellulose) (HPC) 104 % of control

COC(=O)C#CC(c1ccccc1)(c1ccccc1)c1ccccc1
inactive: [1] 103 % of control | [3] 101 % of control | [5] 109 % of control

COC(=O)CC/C=C\Cc1c(OC)c(C)c2c(c1OC=O)C(=O)OC2
inactive: [9] 108 % of control | [10] 108 % of control | endpoint: median survival time, dose: 100.0 mg/kg/injection, schedule: Q04DX002 (ip), vehicle: saline with Tween-80 112 % of control | endpoint: median survival time, dose: 200.0 mg/kg/injection, schedule: Q04DX002 (ip), vehicle: saline with Tween-80 112 % of control

O=C(NC1CCCCC1)OCC#CC#CCOC(=O)NC1CCCCC1
inactive: endpoint: mean survival time, dose: 100.0 mg/kg/injection, schedule: Q04DX003 (ip), vehicle: Klucel (hydroxypropylcellulose) (HPC) 94 % of control | endpoint: mean survival time, dose: 200.0 mg/kg/injection, schedule: Q04DX003 (ip), vehicle: Klucel (hydroxypropylcellulose) (HPC) 96 % of control | endpoint: mean survival time, dose: 400.0 mg/kg/injection, schedule: Q04DX003 (ip), vehicle: Klucel (hydroxypropylcellulose) (HPC) 100 % of control

NC(=O)Nc1ccccc1
inactive: [11] 98 % of control | endpoint: mean survival time, dose: 200.0 mg/kg/injection, schedule: Q01DX009 (ip), vehicle: saline 98 % of control | endpoint: mean survival time, dose: 400.0 mg/kg/injection, schedule: Q01DX009 (ip), vehicle: saline 101 % of control

CCCCCCCCCC[n+]1cccc(C(N)=O)c1
inactive: endpoint: mean survival time, dose: 5.0 mg/kg/injection, schedule: Q01DX009 (ip), vehicle: saline with Tween-80 97 % of control | endpoint: mean survival time, dose: 10.0 mg/kg/injection, schedule: Q01DX009 (ip), vehicle: saline with Tween-80 97 % of control | endpoint: mean survival time, dose: 20.0 mg/kg/injection, schedule: Q01DX009 (ip), vehicle: saline with Tween-80 100 % of control

O=C1C(=O)c2ccccc2C(O)=C1[N+](=O)[O-]
inactive: [1] 96 % of control | [6] 100 % of control | [7] 103 % of control | [8] 112 % of control

O=C1OC(=O)C2C3OC(C4CN=NC43)C12 (stereo unspecified)
inactive: [9] 112 % of control | [10] 118 % of control

Cc1ncc(CO)c(C2NOCc3ccc(Cl)cc32)c1O (stereo unspecified)
inactive: endpoint: mean survival time, dose: 25.0 mg/kg/injection, schedule: Q01DX009 (ip), vehicle: Klucel (hydroxypropylcellulose) (HPC) 96 % of control | [12] 98 % of control

OCC1OC(n2cnc3cncnc32)C(O)C1O (stereo unspecified)
inactive: endpoint: mean survival time, dose: 0.78 mg/kg/injection, schedule: Q01DX009 (ip), vehicle: saline 94 % of control and 102 % of control | endpoint: mean survival time, dose: 1.56 mg/kg/injection, schedule: Q01DX009 (ip), vehicle: saline 106 % of control and 112 % of control | endpoint: mean survival time, dose: 3.12 mg/kg/injection, schedule: Q01DX009 (ip), vehicle: saline 103 % of control and 106 % of control | endpoint: mean survival time, dose: 6.25 mg/kg/injection, schedule: Q01DX009 (ip), vehicle: saline 118 % of control and 89 % of control | endpoint: mean survival time, dose: 12.5 mg/kg/injection, schedule: Q01DX009 (ip), vehicle: saline 106 % of control | endpoint: mean survival time, dose: 25.0 mg/kg/injection, schedule: Q01DX009 (ip), vehicle: saline 119 % of control and 101 % of control

C[n+]1c(-c2cc(Cl)cc(Cl)c2)c2cc(N)ccc2c2ccccc21
inactive: endpoint: mean survival time, dose: 6.25 mg/kg/injection, schedule: Q01DX009 (ip), vehicle: water 108 % of control | endpoint: mean survival time, dose: 12.5 mg/kg/injection, schedule: Q01DX009 (ip), vehicle: water 108 % of control | endpoint: mean survival time, dose: 25.0 mg/kg/injection, schedule: Q01DX009 (ip), vehicle: water 104 % of control

SCC1=NCCN1
inactive: endpoint: mean survival time, dose: 25.0 mg/kg/injection, schedule: Q04DX002 (ip), vehicle: saline 103 % of control | endpoint: mean survival time, dose: 50.0 mg/kg/injection, schedule: Q04DX002 (ip), vehicle: saline 98 % of control | endpoint: mean survival time, dose: 100.0 mg/kg/injection, schedule: Q04DX002 (ip), vehicle: saline 93 % of control and 95 % of control

Cc1cc2c(cc1C)C(=O)c1ccccc1C2=O
inactive: endpoint: mean survival time, dose: 50.0 mg/kg/injection, schedule: Q01DX009 (ip), vehicle: saline 102 % of control | [11] 93 % of control | [2] 97 % of control | [4] 89 % of control

CC(Oc1ccc(Br)cc1Br)C(=O)O (stereo unspecified)
inactive: [1] 97 % of control | [3] 94 % of control | [5] 94 % of control

Cc1ccc([N+](=O)[O-])cc1NC(=O)Nc1c(C)n(C)n(-c2ccccc2)c1=O
inactive: [12] 93 % of control | endpoint: mean survival time, dose: 100.0 mg/kg/injection, schedule: Q01DX009 (ip), vehicle: Klucel (hydroxypropylcellulose) (HPC) 89 % of control | endpoint: mean survival time, dose: 200.0 mg/kg/injection, schedule: Q01DX009 (ip), vehicle: Klucel (hydroxypropylcellulose) (HPC) 93 % of control

COC(=O)c1cccc(OCC(=O)Nc2ccccc2)c1
inactive: [13] 101 % of control | [14] 93 % of control | endpoint: mean survival time, dose: 400.0 mg/kg/injection, schedule: Q01DX001 (ip), vehicle: saline with Tween-80 92 % of control

C=CC1CC=CCC1 (stereo unspecified)
inactive: [1] 103 % of control | [3] 106 % of control

NC(=O)c1ncn(C2OC3COP(=O)(O)OC3C2O)c1N (stereo unspecified)
inactive: endpoint: median survival time, dose: 44.6 mg/kg/injection, schedule: Q01DX005 (ip), vehicle: saline 98 % of control | endpoint: median survival time, dose: 89.2 mg/kg/injection, schedule: Q01DX005 (ip), vehicle: saline 101 % of control | endpoint: median survival time, dose: 178.5 mg/kg/injection, schedule: Q01DX005 (ip), vehicle: saline 93 % of control

Cc1cc2nc(Cc3nc4cc(C)c(C)cc4[nH]3)[nH]c2cc1C
inactive: endpoint: mean survival time, dose: 50.0 mg/kg/injection, schedule: Q01DX009 (ip), vehicle: saline with Tween-80 93 % of control | [1] 87 % of control | [3] 88 % of control

Oc1ccccc1OCCOCCOc1ccccc1O
inactive: endpoint: mean survival time, dose: 50.0 mg/kg/injection, schedule: Q04DX002 (ip), vehicle: other 100 % of control | endpoint: mean survival time, dose: 100.0 mg/kg/injection, schedule: Q04DX002 (ip), vehicle: other 88 % of control | endpoint: mean survival time, dose: 200.0 mg/kg/injection, schedule: Q04DX002 (ip), vehicle: other 103 % of control | endpoint: mean survival time, dose: 400.0 mg/kg/injection, schedule: Q04DX002 (ip), vehicle: other 103 % of control

CC(=O)NC1C(OC(C)=O)OC(COC(C)=O)C(OC(C)=O)C1OC(C)=O (stereo unspecified)
inactive: endpoint: mean survival time, dose: 50.0 mg/kg/injection, schedule: Q01DX001 (ip), vehicle: saline with Tween-80 101 % of control | [13] 95 % of control | [14] 98 % of control

CN(Cc1ccccc1)N=Nc1ccccc1
inactive: endpoint: mean survival time, dose: 18.75 mg/kg/injection, schedule: Q01DX009 (ip), vehicle: Klucel (hydroxypropylcellulose) (HPC) 103 % of control | endpoint: mean survival time, dose: 37.5 mg/kg/injection, schedule: Q01DX009 (ip), vehicle: Klucel (hydroxypropylcellulose) (HPC) 107 % of control | endpoint: mean survival time, dose: 75.0 mg/kg/injection, schedule: Q01DX001 (ip), vehicle: saline 108 % of control | endpoint: mean survival time, dose: 75.0 mg/kg/injection, schedule: Q01DX009 (ip), vehicle: Klucel (hydroxypropylcellulose) (HPC) 113 % of control | endpoint: mean survival time, dose: 150.0 mg/kg/injection, schedule: Q01DX001 (ip), vehicle: saline 108 % of control | endpoint: mean survival time, dose: 150.0 mg/kg/injection, schedule: Q01DX009 (ip), vehicle: Klucel (hydroxypropylcellulose) (HPC) 119 % of control | endpoint: mean survival time, dose: 300.0 mg/kg/injection, schedule: Q01DX001 (ip), vehicle: saline 111 % of control

Cn1c(CC(O)(C(F)(F)F)C(F)(F)F)cc(=O)n1-c1ccccc1
inactive: [6] 95 % of control | [7] 94 % of control

CNC(=O)Oc1cccc(NC(=O)OC(C)C(C)C)c1 (stereo unspecified)
inactive: [6] 98 % of control | [7] 90 % of control | [8] 96 % of control

Reference: PubChem BioAssay AID256 (DTP/NCI, 2004)
